{"source": "patent US20160074480A1", "about": "“INNOVATIVE METHODS OF TREATMENTING TUBERCULOSIS” (priority 2015, published 2016)", "origin": "cited, not measured here", "system": "TB bacteria", "conditions": "laboratory dishes, including strains resistant to available anti-tuberculosis drug; cited from earlier work", "data": [{"smiles": "O=C1O[C@H]([C@@H](O)CO)C(O)=C1O", "note": "[Vitamin C, L-ascorbic acid]", "values": [{"measurement": "killing of TB bacteria", "result": "killed TB bacteria"}]}]}
